“Also recorded” adds a separate entry of the source. Where two headings read alike, the source gives them in different places.
Key:
5-HT2B (h) = target: T1, 5-HT2B (h) (Homo sapiens, UniProt P41595); experiment: 5-HT2B (h) agonist effect, IP1 HTRF functional assay; format: cell-based; settings: for agonist efficacy at 5-HT2B, in words: EMAX relative to 5-HT
T1 construct: expressed in transfected cells; host or cells: CHO cells

MAO-A = target: T2, MAO-A (Homo sapiens, UniProt P21397); experiment: Recombinant human MAO-A in vitro metabolism; format: in vitro ADME; settings: for half-life at 1 µM: human, recombinant human MAO-A
T2 construct: purchased XenoTech (first series); Corning (second series) Corning 456283
T2 sequence (P21397 1-527): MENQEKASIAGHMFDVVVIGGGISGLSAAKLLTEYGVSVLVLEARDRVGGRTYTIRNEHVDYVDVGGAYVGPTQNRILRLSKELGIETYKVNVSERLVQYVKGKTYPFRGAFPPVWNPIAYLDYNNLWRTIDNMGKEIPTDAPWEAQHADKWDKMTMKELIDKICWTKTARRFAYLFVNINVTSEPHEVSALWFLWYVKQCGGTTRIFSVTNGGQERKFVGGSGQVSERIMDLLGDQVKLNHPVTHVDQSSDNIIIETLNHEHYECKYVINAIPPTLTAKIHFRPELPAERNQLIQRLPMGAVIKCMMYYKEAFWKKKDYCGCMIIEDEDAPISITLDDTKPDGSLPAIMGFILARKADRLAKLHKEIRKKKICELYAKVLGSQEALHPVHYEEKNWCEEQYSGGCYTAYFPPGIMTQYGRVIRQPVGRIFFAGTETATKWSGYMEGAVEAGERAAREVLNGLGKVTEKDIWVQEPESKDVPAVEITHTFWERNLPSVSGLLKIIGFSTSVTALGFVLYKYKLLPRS
Protocol: Recombinant human MAO-A. hrMAO-A and MAO control were purchased from XenoTech. The reaction mixture was prepared as described in Table 11. The test compound was added into the reaction mixture at a final concentration of 1 μM. The positive control kynuramine (25 μM) was run simultaneously with the test compound in a separate reaction. The reaction mixture (without test compounds or kynuramine) was equilibrated in a shaking water bath at 37° C. for 5 minutes. The reaction was initiated by the addition of the test compound or kynuramine, and the mixture was incubated in a shaking water bath at 37° C. Aliquots (150 μL) of the test compound reaction mixture were withdrawn at 0, 5, 10, 20, 30, 60, and for some assays at 120 minutes. Aliquots (150 μL) of the positive control reaction mixture were withdrawn at 0 and 30 minutes. Test compound and kynuramine samples were immediately combined with 150 μL of ice-cold 100% acetonitrile containing 0.1% formic acid and internal standard (0.2 μM metoprolol) to terminate the reaction. The samples were then mixed and centrifuged to precipitate proteins. All samples were assayed by LC-MS/MS. The peak area response ratio (PARR) of analyte to internal standard at each time point was compared to the PARR at time 0 to determine the percent remaining at each time point. Half-lives were calculated using GraphPad software, fitting to a single-phase exponential decay equation.
In a different series of reactions using human MAO-A and MAO-B, a 10 mM stock solution of the test compound was prepared in DMSO. From this stock solution, an intermediate stock solution of 1 mM was prepared by diluting the compound in DMSO and from this intermediate stock solution, a working solution of 0.30 mM was prepared by diluting the compound in ACN:Water (50:50) as cocktail of 2 compounds (30 μL each compound in 40 μL diluent for 100 μL). Following this, a master mix of 0.1 M potassium phosphate buffer and test compound mixture i.e., the non-deuterated and the deuterated analog, were prepared to achieve final drug concentration of 1 μM (0.2% DMSO) for the required number of reactions. The aforementioned master mix was pre-incubated at 37° C. for 5 min. To this master mix, MAO-A (final protein conc. 0.1 mg/mL; Corning Cat #456283; Lot #1173003) or MAO-B (final protein conc. 0.1 mg/mL; Corning Cat #456284; Lot #0318001) was added to initiate the reaction. The samples were then incubated at 37° C. for the desired time points. At each time point (0, 5, 15, 30, 45, 60), 40 μL of the samples were withdrawn and reactions were stopped using 200 μL chilled ACN containing 0.1% formic acid and internal standard Carbamazepine (10 ng/mL). The samples were centrifuged, and the supernatant was analyzed by LC-MS/MS. The percent compound remaining at each time point was calculated with respect to that of the 0 min sample. The data were then analyzed to calculate half-life and intrinsic clearance (CLint). Blank samples were prepared using DMSO (without the test compound).

[1] = human recombinant MAO-A, test compound 1 μM, read-out: MAO-A t1/2

T1 sequence (P41595 whole entry): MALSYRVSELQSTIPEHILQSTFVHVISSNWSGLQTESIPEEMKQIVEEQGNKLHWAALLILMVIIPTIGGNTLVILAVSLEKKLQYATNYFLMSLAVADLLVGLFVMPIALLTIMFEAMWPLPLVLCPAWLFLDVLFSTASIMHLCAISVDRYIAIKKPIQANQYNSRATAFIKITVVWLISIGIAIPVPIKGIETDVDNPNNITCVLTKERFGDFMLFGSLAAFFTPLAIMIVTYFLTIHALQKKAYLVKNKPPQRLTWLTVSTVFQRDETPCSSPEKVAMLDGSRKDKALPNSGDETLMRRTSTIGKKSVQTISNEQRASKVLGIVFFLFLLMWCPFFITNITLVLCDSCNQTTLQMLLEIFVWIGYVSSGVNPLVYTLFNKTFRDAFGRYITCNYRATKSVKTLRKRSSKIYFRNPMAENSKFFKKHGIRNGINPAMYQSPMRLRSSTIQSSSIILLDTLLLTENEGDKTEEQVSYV

NCCc1ccc2c(c1)OCS2 [II-14, 2-(benzo[d][1,3]oxathiol-6-yl)ethan-1-amine]
EC50 (5-HT2B (h)): < 0.75 µM
Emax at 10 µM (5-HT2B (h); at 10 μM, relative to 5-HT, read-out: Function 5-HT2B EMAX): 100%
Function 5-HT2B (Gq-IP1, efficacy relative to 5-HT), agonist type (5-HT2B (h); tested at 1, 3, 10, 100 μM): Full agonist -
agonist efficacy at 5-HT2B, in words (5-HT2B (h); tested at 1, 3, 10, 100 μM): nearly full or full agonist; also recorded: full agonists
half-life at 1 µM (MAO-A; 1 μM test compound, read-out: half-life, MAO-A metabolism): ≤ 8 min
half-life at 1 µM (MAO-A; [1]): 4.09 min

CC(N)Cc1ccc2c(c1)OCS2 (stereo not drawn) [II-16, 1-(benzo[d][1,3]oxathiol-6-yl)propan-2-amine]
agonist efficacy at 5-HT2B, in words (5-HT2B (h); tested at 1, 3, 10, 100 μM): nearly full or full agonist; also recorded: full agonists
half-life at 1 µM (MAO-A; [1]): > 120 min
stability in the presence of MAO-A (MAO-A; result in words): stable

From patent US20250145566A1, “PHENETHYLAMINE DERIVATIVES, COMPOSITIONS, AND METHODS OF USE” (Cybin IRL Limited, priority 2022, published 2025)
